Structures can show the parent of a compound that is named as a salt.
Biological target: MCH receptor (Homo sapiens, UniProt Q99705)
Assay: FLIPR/FDSS6000 functional assay: intracellular Ca2+ changes evoked by MCH
Type: cell-based
Conditions: class by percent of control at 10^−7 M or by IC50; antagonist activity, 50 nM of MCH; read-out: class
Procedure, shortened: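 Cells expressing a constitutively active, non-endogenous MCH receptor were loaded with 4 μM Fluo-4-AM for 1 hr at 37 °C. They were then preincubated 30 min with compound before MCH addition, using 50 nM MCH for antagonist testing. [Ca2+]i transients were monitored at Ex 488/Em 530 nm for 290 s by FLIPR or FDSS.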

Row | Compound | IC50 [nM]
1 | CN(C)c1cc(N[C@H]2CC[C@@H](NC(=O)c3ccc(F)c(Cl)c3)CC2)nc(-c2ccccc2)n1 [Example 178, 3-Chloro-N-(cis-4-{[6-(dimethylamino)-2-phenylpyrimidin-4-yl]amino}cyclohexyl)-4-fluorobenzamide hydrochloride] | > 200
2 | CN(C)c1cc(N[C@H]2CC[C@@H](NC(=O)c3ccc(F)c(Cl)c3)CC2)nc(Cc2ccccc2)n1 [Example 179, N-(cis-4-{[2-Benzyl-6-(dimethylamino)pyrimidin-4-yl]amino}cyclohexyl)-3-chloro-4-fluorobenzamide hydrochloride] | < 50
3 | Cc1nc(N[C@H]2CC[C@@H](NC(=O)c3ccc(F)c(Cl)c3)CC2)c(C)c(N(C)C)n1 [Example 180, 3-Chloro-N-(cis-4-{[6-(dimethylamino)-2,5-dimethylpyrimidin-4-yl]amino}cyclohexyl)-4-fluorobenzamide hydrochloride] | > 200
4 | Cc1nc(N[C@H]2CC[C@@H](NC(=O)c3ccc(F)c(Cl)c3)CC2)c(F)c(N(C)C)n1 [Example 181, 3-Chloro-N-(cis-4-{[6-(dimethylamino)-5-fluoro-2-methylpyrimidin-4-yl]amino}cyclohexyl)-4-fluorobenzamide hydrochloride] | > 200
5 | Cc1nc(N[C@H]2CC[C@@H](NS(=O)(=O)c3ccc(F)c(Cl)c3)CC2)cc(N(C)C)n1 [Example 182, 3-Chloro-N-(cis-4-{[6-(dimethylamino)-2-methylpyrimidin-4-yl]amino}cyclohexyl)-4-fluorobenzenesulfonamide hydrochloride] | > 200
6 | Cc1nc(N[C@H]2CC[C@@H](NC(=S)Nc3ccc(F)c(Cl)c3)CC2)cc(N(C)C)n1 [Example 183, N-(3-Chloro-4-fluorophenyl)-N′-(cis-4-{[6-(dimethylamino)-2-methylpyrimidin-4-yl]amino}cyclohexyl)thiourea hydrochloride] | > 200
7 | Cc1nc(N[C@H]2CC[C@@H](NC(=O)Oc3ccc(Br)cc3)CC2)cc(N(C)C)n1 [Example 184, 4-Bromophenyl (cis-4-{[6-(dimethylamino)-2-methylpyrimidin-4-yl]amino}cyclohexyl)carbamate] | > 200
8 | COc1cc(N[C@H]2CC[C@@H](NC(=O)c3ccc(F)c(Cl)c3)CC2)nc(OC)n1 [Example 185, 3-Chloro-N-{cis-4-[(2,6-dimethoxypyrimidin-4-yl)amino]cyclohexyl}-4-fluorobenzamide hydrochloride] | > 200
9 | O=C(N[C@H]1CC[C@@H](Nc2ncnc3[nH]ccc23)CC1)c1ccc(F)c(Cl)c1 [Example 186, 3-Chloro-4-fluoro-N-[cis-4-(7H-pyrrolo[2,3-d]pyrimidin-4-ylamino)cyclohexyl]benzamide hydrochloride] | > 200
10 | Cn1ccc2c(N[C@H]3CC[C@@H](NC(=O)c4ccc(F)c(Cl)c4)CC3)ncnc21 [Example 187, 3-Chloro-4-fluoro-N-{cis-4-[(7-methyl-7H-pyrrolo[2,3-d]pyrimidin-4-yl)amino]cyclohexyl}-benzamide hydrochloride] | 50 to 200
11 | Cn1ccc2c(N[C@H]3CC[C@@H](NC(=O)c4cc(F)c(F)c(F)c4)CC3)ncnc21 [Example 188, 3,4,5-Trifluoro-N-{cis-4-[(7-methyl-7H-pyrrolo[2,3-d]pyrimidin-4-yl)amino]cyclohexyl}benzamide hydrochloride] | 50 to 200
12 | CCn1ccc2c(N[C@H]3CC[C@@H](NC(=O)c4ccc(F)c(Cl)c4)CC3)ncnc21 [Example 189, 3-Chloro-N-{cis-4-[(7-ethyl-7H-pyrrolo[2,3-d]pyrimidin-4-yl)amino]cyclohexyl}-4-fluorobenzamide hydrochloride] | > 200
13 | Cn1cnc2c(N[C@H]3CC[C@@H](NC(=O)c4ccc(F)c(Cl)c4)CC3)ncnc21 [Example 190, 3-Chloro-4-fluoro-N-{cis-4-[(9-methyl-9H-purin-6-yl)amino]cyclohexyl}benzamide hydrochloride] | > 200
14 | Cc1nc(N[C@H]2CC[C@@H](C(=O)Nc3ccc(F)c(Cl)c3)CC2)cc(N(C)C)n1 [Example 191, cis-N-(3-Chloro-4-fluorophenyl)-4-{[6-(dimethylamino)-2-methylpyrimidin-4-yl]amino}cyclohexanecarboxamide hydrochloride] | < 50
15 | Cc1nc(N[C@H]2CC[C@@H](C(=O)Nc3ccc(F)c(F)c3)CC2)cc(N(C)C)n1 [Example 192, cis-N-(3,4-Difluorophenyl)-4-{[6-(dimethylamino)-2-methylpyrimidin-4-yl]amino}cyclohexanecarboxamide hydrochloride] | 50 to 200
16 | Cc1nc(N[C@H]2CC[C@@H](C(=O)Nc3cc(F)c(F)c(F)c3)CC2)cc(N(C)C)n1 [Example 193, cis-4-{[6-(Dimethylamino)-2-methylpyrimidin-4-yl]amino}-N-(3,4,5-trifluorophenyl)-cyclohexanecarboxamide hydrochloride] | < 50
17 | Cc1nc(N[C@H]2CC[C@@H](C(=O)Oc3ccc(F)c(Cl)c3)CC2)cc(N(C)C)n1 [Example 194, 3-Chloro-4-fluorophenyl cis-4-{[6-(dimethylamino)-2-methylpyrimidin-4-yl]amino}-cyclohexanecarboxylate hydrochloride] | > 200
18 | Cc1nc(N[C@H]2CC[C@@H](C(=O)Nc3cc(Cl)cc(Cl)c3)CC2)cc(N(C)C)n1 [Example 195, cis-N-(3,5-Dichlorophenyl)-4-{[6-(dimethylamino)-2-methylpyrimidin-4-yl]amino}-cyclohexanecarboxamide hydrochloride] | > 200
19 | Cc1nc(N[C@H]2CC[C@@H](C(=O)Oc3ccc(F)c(F)c3)CC2)cc(N(C)C)n1 [Example 196, 3,4-Difluorophenyl cis-4-{[6-(dimethylamino)-2-methylpyrimidin-4-yl]amino}-cyclohexanecarboxylate hydrochloride] | > 200
20 | N^4-(cis-4-{[Bromo-2-(trifluoromethoxy)benzyl]amino}cyclohexyl)-N^2,N^2-dimethylpyrimidine-2,4-diamine dihydrochloride [Example 42] | > 200

From US20090036448A1, “PYRIMIDINE DERIVATIVES AND METHODS OF TREATMENT RELATED TO THE USE THEREOF” (TAISHO PHARMECUTICAL CO., LTD., priority 2004, published 2009)
